These results are taken from paper PMC7922706, “New Inhibitory Effects of Cilnidipine on Microglial P2X7 Receptors and IL-1β Release: An Involvement in its Alleviating Effect on Neuropathic Pain” (Cells, 2021).

Molecules are shown by their SMILES. Like-named read-outs stand apart in the source and are kept apart here.

This experiment addresses T1, rat P2X7R (Rattus norvegicus, UniProt Q64663).
T1 construct: gene P2rx7; rP2X7R (NM_019256) stably expressed in 1321N1 cells
T1 sequence (Q64663 1-595): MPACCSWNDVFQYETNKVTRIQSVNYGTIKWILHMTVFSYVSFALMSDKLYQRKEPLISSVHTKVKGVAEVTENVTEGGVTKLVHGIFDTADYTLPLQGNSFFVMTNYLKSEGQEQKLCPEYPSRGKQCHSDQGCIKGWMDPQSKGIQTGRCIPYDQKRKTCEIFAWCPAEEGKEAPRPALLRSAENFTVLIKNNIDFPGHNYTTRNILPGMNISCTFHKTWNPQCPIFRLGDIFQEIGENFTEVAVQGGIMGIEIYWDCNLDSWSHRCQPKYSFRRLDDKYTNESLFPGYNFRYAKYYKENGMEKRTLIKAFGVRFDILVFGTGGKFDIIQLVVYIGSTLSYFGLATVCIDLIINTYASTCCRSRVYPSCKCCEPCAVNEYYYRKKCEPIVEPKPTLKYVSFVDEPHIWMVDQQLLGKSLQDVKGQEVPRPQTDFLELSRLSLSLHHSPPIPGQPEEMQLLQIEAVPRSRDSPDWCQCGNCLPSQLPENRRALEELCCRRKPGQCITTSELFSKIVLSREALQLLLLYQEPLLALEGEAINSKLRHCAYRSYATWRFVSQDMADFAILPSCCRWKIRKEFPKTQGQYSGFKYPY
Kind of experiment: single-cell Fura-2 Ca2+ imaging, BzATP-stimulated rP2X7R-1321N1 cells. It counts as cell-based.

Consider `COCCOC(=O)C1=C(C)NC(C)=C(C(=O)OC/C=C/c2ccccc2)C1c1cccc([N+](=O)[O-])c1` (racemic) [CNP, 2-Methoxyethyl(E)-3-phenyl-2-propen-1-yl(±)-1,4-dihydro-2,6-dimethyl-4-(3-nitrophenyl)pyridine-3,5-dicarboxylate], for which the IC50 (commonly the midpoint of a concentration-inhibition curve) (read-out: IC50) was found to be 130 nM.

The compound `CCc1oc2ccccc2c1C(=O)c1cc(Br)c(O)c(Br)c1` [BBR, benzbromarone] had an IC50 of 250 nM.

Consider `COc1cc(C(=O)NS(=O)(=O)c2ccccc2C)ccc1Cc1cn(C)c2ccc(NC(=O)OC3CCCC3)cc12` [ZFK, zafirlukast], for which the IC50 (read-out: IC50) is 220 nM.
